Laboratory results published in US8334382B2, “Substituted biaryl piperazinyl-pyridine analogues” (Neurogen Corporation, priority 2004, dated 2012).

The compounds below were run against T1, human capsaicin receptor (Homo sapiens, UniProt Q8NER1) (assay: Calcium mobilization assay, determination of antagonist activity). Conditions: capsaicin at EC50; cells expressing human capsaicin receptor; Example 6.
T1 construct: expressed in transfected cells; host or cells: HEK293, stably transfected with pBK-CMV construct
T1 sequence (Q8NER1 whole entry): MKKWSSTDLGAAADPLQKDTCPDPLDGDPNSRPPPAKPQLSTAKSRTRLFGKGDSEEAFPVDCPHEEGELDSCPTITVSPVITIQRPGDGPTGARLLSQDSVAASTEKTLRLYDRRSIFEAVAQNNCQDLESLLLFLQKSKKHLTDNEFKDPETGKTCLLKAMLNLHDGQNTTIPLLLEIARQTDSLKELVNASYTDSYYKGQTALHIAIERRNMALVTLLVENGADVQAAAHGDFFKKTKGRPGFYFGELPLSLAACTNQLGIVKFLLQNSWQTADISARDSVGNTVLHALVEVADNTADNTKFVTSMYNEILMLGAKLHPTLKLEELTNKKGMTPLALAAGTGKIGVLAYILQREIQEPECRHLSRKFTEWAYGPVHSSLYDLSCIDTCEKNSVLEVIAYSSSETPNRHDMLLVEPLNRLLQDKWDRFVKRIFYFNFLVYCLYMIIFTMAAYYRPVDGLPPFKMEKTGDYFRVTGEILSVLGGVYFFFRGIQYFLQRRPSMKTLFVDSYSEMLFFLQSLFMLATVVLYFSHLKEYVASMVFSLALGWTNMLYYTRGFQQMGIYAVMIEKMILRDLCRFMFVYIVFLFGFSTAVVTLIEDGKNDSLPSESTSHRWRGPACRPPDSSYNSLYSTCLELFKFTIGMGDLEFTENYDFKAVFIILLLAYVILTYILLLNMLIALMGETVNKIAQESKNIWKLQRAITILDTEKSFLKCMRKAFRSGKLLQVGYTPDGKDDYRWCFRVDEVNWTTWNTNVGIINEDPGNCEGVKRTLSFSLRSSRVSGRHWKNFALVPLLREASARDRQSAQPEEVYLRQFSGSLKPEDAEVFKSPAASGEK
Assay type: cell-based
Procedure, shortened: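 IC50 is the antagonist level giving a 50% drop in the capsaicin (EC50) calcium signal, read by FLIPR in Fluo-3 AM-loaded stable HEK293 lines bearing full-length human receptor. Compounds at 1-5 µM final were preincubated 0.5-6 h, room temperature, dark, in KRH pH 7.4.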

| IC50 [nM] | SMILES |
| --- | --- |
| ≤ 1000 | Cc1cc(-c2ncco2)cnc1N1CCN(c2cc(-c3ccc(F)cc3)nc(N3CCC[C@H]3C)n2)[C@H](C)C1 [Example 162, 4-(4-Fluoro-phenyl)-6-[2-(R)-methyl-4-(3-methyl-5-oxazol-2-yl-pyridin-2-yl)-piperazin-1-yl]-2-(2-(R)-methyl-pyrrolidin-1-yl)-pyrimidine] |
| ≤ 1000 | C[C@@H]1CN(c2ncc(CO)cc2Cl)CCN1c1cc(-c2ccc(F)cc2)nc(N2CCCC2)n1 [Example 32, (5-Chloro-6-{4-[6-(4-fluoro-phenyl)-2-pyrrolidin-1-yl-pyrimidin-4-yl]-3-(R)-methyl-piperazin-1-yl}-pyridin-3-yl)-methanol] |
| ≤ 1000 | C[C@@H]1COCCN1c1nc(-c2ccc(F)cc2)cc(N2CCN(c3ncc(C(=O)O)cc3Cl)CC2)n1 [Example 159, 5-Chloro-6-{4-[6-(4-fluoro-phenyl)-2-(3-(R)-methyl-morpholin-4-yl)-pyrimidin-4-yl]-piperazin-1-yl}-nicotinic acid] |
| ≤ 1000 | Cc1cc(C(=O)O)cnc1N1CCN(c2cc(-c3ccc(F)cc3)nc(N3CCC[C@H]3CO)n2)[C@H](C)C1 [Example 151, 6-{4-[6-(4-Fluoro-phenyl)-2-(2-(S)-hydroxymethyl-pyrrolidin-l-yl)-pyrimidin-4-yl]-3-(R)-methyl-piperazin-1-yl}-5-methyl-nicotinic acid] |
| ≤ 1000 | C[C@@H]1CN(c2ncc(C(=O)O)cc2Cl)CCN1c1cc(-c2ccc(F)cc2)nc(N2CCCC2)n1 [Example 30, 5-Chloro-6-{4-[6-(4-fluoro-phenyl)-2-pyrrolidin-1-yl-pyrimidin-4-yl]-3-(R)-methyl-piperazin-1-yl}-nicotinic acid] |
| ≤ 1000 | Cc1cc(C(N)=O)cnc1N1CCN(c2cc(-c3ccnc(C(C)C)c3)nc(N3CCCC3C)n2)CC1 (stereo not drawn) [Example 90, 6-{4-[6-(2-Isopropyl-pyridin-4-yl)-2-(2-methyl-pyrrolidin-1-yl)-pyrimidin-4-yl]-piperazin-1-yl}-5-methyl-nicotinamide] |
| ≤ 1000 | Cc1cc(OCCO)cnc1N1CCN(c2cc(-c3ccc(F)c(Cl)c3)nc(N3CCC[C@H]3C)n2)[C@H](C)C1 [Example 182, 2-{[6-((3R)-4-{6-(3-chloro-4-fluorophenyl)-2-[(2R)-2-methyl-1-pyrrolidinyl]-4-pyrimidinyl}-3-methyl-1-piperazinyl)-5-methyl-3-pyridinyl]oxy}ethanol] |
| ≤ 1000 | Cc1cc(C(=O)O)cnc1N1CCN(c2cc(-c3ccc(F)cc3)nc(N3CCOC[C@H]3C)n2)[C@H](C)C1 [Example 150, 6-{4-[6-(4-Fluoro-phenyl)-2-(3-(R)-methyl-morpholin-4-yl)-pyrimidin-4-yl]-3-(R)-methyl-piperazin-1-yl}-5-methyl-nicotinic acid] |
| ≤ 1000 | CC(=O)NC1CCN(C(=O)c2cnc(N3CCN(c4cc(-c5ccc(F)cc5)nc(N5CCCC5C)n4)CC3)c(C)c2)C1 (stereo not drawn) [Example 140, N-{l-[(6-{4-[6-(4-fluorophenyl)-2-(2-methylpyrrolidin-1-yl)pyrimidin-4-yl]piperazin-1-yl}-5-methylpyridin-3-yl)carbonyl]pyrrolidin-3-yl}acetamide] |
| ≤ 1000 | Cc1ccc(-c2cc(N3CCN(c4ncc(C(=O)O)cc4C)C[C@H]3C)nc(N3CCCC3C)n2)cc1 (stereo partly drawn) [Example 168, 5-Methyl-6-{3-(R)-methyl-4-[2-(2-methyl-pyrrolidin-1-yl)-6-p-tolyl-pyrimidin-4-yl]-piperazin-1-yl}-nicotinic acid] |
| ≤ 1000 | Cc1cc(C(N)=O)cnc1N1CCN(c2cc(-c3ccc(F)cc3)nc(N3CCCC3C)n2)CC1 (stereo not drawn) [Example 45, 6-{4-[6-(4-Fluoro-phenyl)-2-(2-methyl-pyrrolidin-1-yl)-pyrimidin-4-yl]-piperazin-1-yl}-5-methyl-nicotinamide] |
| ≤ 1000 | Cc1cc(C(N)=O)cnc1N1CCN(c2cc(-c3ccc(F)cc3)nc(N(C)C)n2)[C@H](C)C1 [Example 83, 6-{4-[2-Dimethylamino-6-(4-fluoro-phenyl)-pyrimidin-4-yl]-3-(R)-mcthyl-piperazin-1-yl}-5-methyl-nicotinamide] |
| ≤ 1000 | Cc1cc(C(=O)O)cnc1N1CCN(c2cc(-c3ccc(F)cc3)nc(N3CCCC3C)n2)CC1 (stereo not drawn) [Example 36, 6-{4-[6-(4-Fluoro-phenyl)-2-(2-methyl-pyrrolidin-1-yl)-pyrimidin-4-yl]-piperazin-1-yl}-5-methyl-nicotinic acid] |
| ≤ 1000 | Cc1cc(C(=O)O)cnc1N1CCN(c2cc(-c3cccc(Cl)c3)nc(N3CCC[C@H]3C)c2)[C@H](C)C1 [Example 175, 6-{4-[2-(3-Chloro-phenyl)-6-(2-(R)-methyl-pyrrolidin-1-yl)-pyridin-4-yl]-3-(R)-methyl-piperazin-1-yl}-5-methyl-nicotinic acid] |
| ≤ 1000 | Cc1cc(C(=O)N2CCCCC2)cnc1N1CCN(c2cc(-c3ccc(F)cc3)nc(N3CCCC3C)n2)CC1 (stereo not drawn) [Example 123, 4-(4-fluorophenyl)-6-{4-[3-methyl-5-(piperidin-1-ylcarbonyl)pyridin-2-yl]piperazin-1-yl}-2-(2-methylpyrrolidin-1-yl)pyrimidine] |
| ≤ 1000 | COc1ccc(CNC(=O)c2cnc(N3CCN(c4cc(-c5ccc(F)cc5)nc(N5CCCC5C)n4)CC3)c(C)c2)cc1 (stereo not drawn) [Example 115, 6-{4-[6-(4-fluorophenyl)-2-(2-methylpyrrolidin-1-yl)pyrimidin-4-yl]piperazin-1-yl}-N-(4-methoxybenzyl)-5-methylnicotinamide] |
| ≤ 1000 | Cc1cccc(-c2cc(N3CCN(c4ncc(CO)cc4C)CC3)nc(N3CCCC3C)n2)c1 (stereo not drawn) [Example 72, (5-Methyl-6-{4-[2-(2-methyl-pyrrolidin-1-yl)-6-m-tolyl-pyrimidin-4-yl]-piperazin-1-yl}-pyridin-3-yl)-methanol] |
| ≤ 1000 | C[C@@H]1CN(c2ncc(C(N)=O)cc2Cl)CCN1c1cc(-c2ccc(F)c(Cl)c2)nc(N2CCC[C@H]2C)n1 [Example 102, 5-Chloro-6-{4-[6-(3-chloro-4-fluoro-phenyl)-2-(2-(R)-methyl-pyrrolidin-l-yl)-pyrimidin-4-yl]-3-(R)-methyl-piperazin-1-yl}-nicotinamide] |
| ≤ 1000 | Cc1cc(CO)cnc1N1CCN(c2cc(-c3ccc(F)cc3)nc(N(C)C)n2)[C@H](C)C1 [Example 67, (6-{4-[2-Dimethylamino-6-(4-fluoro-phenyl)-pyrimidin-4-yl]-3-(R)-methyl-piperazin-1-yl}-5-methyl-pyridin-3-yl)-methanol] |
| ≤ 1000 | CCOC(=O)c1cnc(N2CCN(c3cc(-c4ccnc(C(C)C)c4)nc(N4CCCC4C)n3)CC2)c(C)c1 (stereo not drawn) [Example 57, 6-{4-[6-(2-Isopropyl-pyridin-4-yl)-2-(2-methyl-pyrrolidin-1-yl)-pyrimidin-4-yl]-piperazin-1-yl}-5-methyl - nicotinic acid ethyl ester] |
| ≤ 1000 | CC(O)c1cnc(N2CCN(c3cc(-c4ccc(F)cc4)nc(N4CCCC4C)n3)CC2)c(Cl)c1 (stereo not drawn) [Example 148, l-(5-Chloro-6-{4-[6-(4-fluoro-phenyl)-2-(2-methyl-pyrrolidin-1-yl)-pyrimidin-4-yl]-piperazin-1-yl}-pyridin-3-yl)-ethanol] |
| ≤ 1000 | Cc1cc(C(=O)NC2CCCC2)cnc1N1CCN(c2cc(-c3ccc(F)cc3)nc(N3CCCC3C)n2)CC1 (stereo not drawn) [Example 108, N-Cyclopentyl-6-{4-[6-(4-fluoro-phenyl)-2-(2-methyl-pyrrolidin-1-yl)-pyrimidin-4-yl]-piperazin-1-yl}-5-methyl-nicotinamide] |
| ≤ 1000 | Cc1cc(C#N)cnc1N1CCN(c2cc(-c3ccc(F)cc3)nc(N3CCC[C@H]3C)n2)[C@H](C)C1 [Example 188, 6-((3R)-4-{6-(4-fluorophenyl)-2-[(2R)-2-methyl-1-pyrrolidinyl]-4-pyrimidinyl}-3-methyl-1-piperazinyl)-5-methylnicotinonitrile] |
| ≤ 1000 | Cc1cc(CO)cnc1N1CCN(c2cc(-c3ccnc(C(C)C)c3)nc(N3CCCC3C)n2)[C@H](C)C1 (stereo partly drawn) [Example 66, (6-{4-[6-(2-Isopropyl-pyridin-4-yl)-2-(2-methyl-pyrrolidin-1-yl)-pyrimidin-4-yl]-3-(R)-methyl-piperazin-1-yl}-5-methyl-pyridin-3-yl)-methanol] |
| ≤ 1000 | Cc1cc(CO)cnc1N1CCN(c2cc(-c3ccccc3)nc(N3CCCC3C)n2)CC1 (stereo not drawn) [Example 71, (5-Methyl-6-{4-[2-(2-methyl-pyrrolidin-1-yl)-6-phenyl-pyrimidin-4-yl]-piperazin-1-yl}-pyridin-3-yl)-methanol] |
| ≤ 1000 | C[C@@H]1CN(c2ncc(C(=O)O)cc2C(F)(F)F)CCN1c1cc(-c2ccc(F)cc2)nc(N2CCC[C@H]2C)n1 [Example 179, 6-{4-[6-(4-Fluoro-phenyl)-2-(2-(R)-methyl-pyrrolidin-1-yl)-pyrimidin-4-yl]-3-(R)-methyl-piperazin-1-yl}-5-trifluoromethyl-nicotinic acid] |
| ≤ 1000 | Cc1cc(CO)cnc1N1CCN(c2cc(-c3ccnc(C(C)C)c3)nc(N3CCCC3C)n2)CC1 (stereo not drawn) [Example 74, (6-{4-[6-(2-Isopropyl-pyridin-4-yl)-2-(2-methyl-pyrrolidin-1-yl)-pyrimidin-4-yl]-piperazin-1-yl}-5-methyl-pyridin-3-yl)-methanol] |
| ≤ 1000 | Cc1cc(C(=O)O)cnc1N1CCN(c2cc(-c3cncc(Cl)c3)nc(N3CCC[C@H]3C)c2)[C@H](C)C1 [Example 180, 6-{4-[5′-Chloro-6-(2-(R)-methyl-pyrrolidin-1-yl)-[2,3′]bipyridinyl-4-yl]-3-(R)-methyl-piperazin-1-yl}-5-methyl-nicotinic acid] |
| ≤ 1000 | Cc1cccc(-c2cc(N3CCN(c4ncc(CO)cc4Cl)C[C@H]3C)nc(N3CCCC3C)n2)c1 (stereo partly drawn) [Example 48, (5-Chloro-6-{3-(R)-methyl-4-[2-(2-methyl-pyrrolidin-1-yl)-6-m-tolyl-pyrimidin-4-yl]-piperazin-1-yl}-pyridin-3-yl)-methanol] |
| ≤ 1000 | Cc1cc(CCO)cnc1N1CCN(c2cc(-c3ccc(F)cc3)nc(N3CCC[C@H]3C)n2)[C@H](C)C1 [Example 181, 2-[6-((3R)-4-{6-(4-fluorophenyl)-2-[(2R)-2-methyl-1-pyrrolidinyl]-4-pyrimidinyl}-3-methyl-1-piperazinyl)-5-methyl-3-pyridinyl]ethanol] |
